{
  "source": "patent US20160264593A1",
  "about": "(priority 2013, published 2016)",
  "assay": "in vivo",
  "conditions": "rat, in vivo; for Tmax: Tmax of 100; for MRT: MRT of 100",
  "protocol": "100 was administrated via iv route at 0.5, 1.0 and 1.5 mg/kg into SD rats. The blood, liver and brain tissue samples were collected at predetermined times from rats.\nTwelve (12) female SD rats per group were dosed by iv with 100. The rats were fasted overnight prior to dosing, with free access to water. Foods were withheld for 2 hours post-dose. Blood, liver and brain tissue samples in two animals each group were collected at each time point, within 10% of the scheduled time for each time point. Two extra animals were used for analytic method development. Blood (>0.3 mL) were collected via aorta abdominalis in anaesthetic animalsinto tubes containing heparin at 15 min, 1, 2, 6, 10 and 24 hours after iv administration. Liver and brain tissues were collected immediately after animal death. The liver and brain tissues were excised and rinsed with cold saline to avoid blood residual. Upon collection, each sample was placed on ice and the blood samples were subsequently centrifuged (4° C., 11000 rpm, 5 min) to separate plasma. The obtained plasma, liver and brain tissue samples were stored at −70° C. until LC-MS/MS analysis.\nAUC0-∞ (AUC/NF) is the area under the plasma concentration-time curve with last concentration extrapolated based on the elimination rate constant.",
  "key": {"[1]": {"conditions": "female, Sprague-Dawley (SD), iv, 0.5 mg/kg, 100 brain concentration"}, "[2]": {"conditions": "female, Sprague-Dawley (SD), iv, 0.5 mg/kg, 100 liver concentration"}, "[3]": {"conditions": "female, Sprague-Dawley (SD), iv, 1 mg/kg, 100 liver concentration"}, "[4]": {"conditions": "female, Sprague-Dawley (SD), iv, 1.5 mg/kg, 100 brain concentration"}, "[5]": {"conditions": "female, Sprague-Dawley (SD), iv, 1.5 mg/kg, 100 liver concentration"}, "[6]": {"conditions": "female, Sprague-Dawley, iv, 0.5 mg/kg, 100 plasma concentration"}, "[7]": {"conditions": "female, Sprague-Dawley, iv, 1 mg/kg, 100 plasma concentration"}, "[8]": {"conditions": "female, Sprague-Dawley, iv, 1.5 mg/kg, 100 plasma concentration"}},
  "data": [
    {"compound": "CN1CCN(C(=O)C2C3CCC(O3)C2C(=O)O)CC1", "note": "(stereo not drawn) [Compound 100, 3-(4-methylpiperazine-1-carbonyl)-7-oxa-bicyclo[2,2,1]-heptane-2-carboxylic acid]", "values": [
      {"measurement": "AUC(0-inf)", "setting": "female, SD, iv, 0.5 mg/kg", "value": 0.706, "unit": "µg·h/mL"},
      {"measurement": "AUC(0-t)", "setting": "female, SD, iv, 0.5 mg/kg", "value": 0.696, "unit": "µg·h/mL"},
      {"measurement": "Tmax of 100", "setting": "female, SD, iv, 0.5 mg/kg", "value": 0.25, "unit": "h"},
      {"measurement": "Cmax", "setting": "female, SD, iv, 0.5 mg/kg, Cmax of 100", "value": 1.11, "unit": "µg/mL"},
      {"measurement": "Tmax", "setting": "female, SD, iv, 0.5 mg/kg", "value": 0.25, "unit": "h"},
      {"measurement": "AUC(0-inf)", "setting": "female, SD, iv, 1 mg/kg", "value": 2.83, "unit": "µg·h/mL"},
      {"measurement": "AUC(0-t)", "setting": "female, SD, iv, 1 mg/kg", "value": 1.92, "unit": "µg·h/mL"},
      {"measurement": "Tmax of 100", "setting": "female, SD, iv, 1 mg/kg", "value": 0.25, "unit": "h"},
      {"measurement": "Cmax", "setting": "female, SD, iv, 1 mg/kg, Cmax of 100", "value": 2.38, "unit": "µg/mL"},
      {"measurement": "MRT", "setting": "female, SD, iv, 1 mg/kg", "value": 2.68, "unit": "h"},
      {"measurement": "Tmax", "setting": "female, SD, iv, 1 mg/kg", "value": 0.25, "unit": "h"},
      {"measurement": "AUC(0-inf)", "setting": "female, SD, iv, 1.5 mg/kg", "value": 8.64, "unit": "µg·h/mL"},
      {"measurement": "AUC(0-t)", "setting": "female, SD, iv, 1.5 mg/kg", "value": 7.4, "unit": "µg·h/mL"},
      {"measurement": "Cmax", "setting": "female, SD, iv, 1.5 mg/kg, Cmax of 100", "value": 3.66, "unit": "µg/mL"},
      {"measurement": "MRT", "setting": "female, SD, iv, 1.5 mg/kg", "value": 2.57, "unit": "h"},
      {"measurement": "half-life", "setting": "female, SD, iv, 1.5 mg/kg, T½ of 100", "value": 1.93, "unit": "h"},
      {"measurement": "concentration at 0.25 h", "setting": "[1]", "value": 15.3, "unit": "ng/g"},
      {"measurement": "concentration at 0.25 hr", "setting": "[1]", "value": 17.4, "unit": "ng/g"},
      {"measurement": "concentration at 1 hr", "setting": "[1]", "value": 6.31, "unit": "ng/g"},
      {"measurement": "concentration at 0.25 h", "setting": "[2]", "value": 520, "unit": "ng/g"},
      {"measurement": "concentration at 2 h", "setting": "[2]", "value": 109, "unit": "ng/g"},
      {"measurement": "concentration at 6 h", "setting": "[2]", "value": 4.8, "unit": "ng/g"},
      {"measurement": "concentration at 2 h", "setting": "female, Sprague-Dawley (SD), iv, 0.5 mg/kg, 100 plasma concentration", "value": 0.0226, "unit": "µg/mL"},
      {"measurement": "concentration at 0.25 h", "setting": "[3]", "value": 1300, "unit": "ng/g"},
      {"measurement": "concentration at 1 h", "setting": "[3]", "value": 865, "unit": "ng/g"},
      {"measurement": "concentration at 0.25 h", "setting": "[4]", "value": 46.9, "unit": "ng/g"},
      {"measurement": "concentration at 1 h", "setting": "[4]", "value": 28.2, "unit": "ng/g"},
      {"measurement": "concentration at 2 h", "setting": "[4]", "value": 27.2, "unit": "ng/g"},
      {"measurement": "concentration at 6 h", "setting": "[4]", "value": 4.23, "unit": "ng/g"},
      {"measurement": "concentration at 0.25 h", "setting": "[5]", "value": 1980, "unit": "ng/g"},
      {"measurement": "concentration at 1 h", "setting": "[5]", "value": 2140, "unit": "ng/g"},
      {"measurement": "concentration at 2 h", "setting": "[5]", "value": 2400, "unit": "ng/g"},
      {"measurement": "concentration at 6 h", "setting": "[5]", "value": 407, "unit": "ng/g"},
      {"measurement": "concentration at 10 h", "setting": "[5]", "value": 5.25, "unit": "ng/g"},
      {"measurement": "100 liver concentration", "setting": "female, Sprague-Dawley (SD), iv, 1.5 mg/kg, 6 h", "value": 536, "unit": "ng/g"},
      {"measurement": "concentration at 0.25 h", "setting": "[6]", "value": 1, "unit": "µg/mL"},
      {"measurement": "concentration at 1 h", "setting": "[6]", "value": 0.192, "unit": "µg/mL"},
      {"measurement": "concentration at 2 h", "setting": "[6]", "value": 0.0258, "unit": "µg/mL"},
      {"measurement": "100 plasma concentration", "setting": "female, Sprague-Dawley, iv, 0.5 mg/kg, 2 h", "value": 19.4, "unit": "ng/mL"},
      {"measurement": "concentration at 0.25 h", "setting": "[7]", "value": 2.12, "unit": "µg/mL"},
      {"measurement": "concentration at 1 h", "setting": "[7]", "value": 0.354, "unit": "µg/mL"},
      {"measurement": "concentration at 6 h", "setting": "[7]", "value": 0.00327, "unit": "µg/mL"},
      {"measurement": "AUC(0-t)", "setting": "female, Sprague-Dawley, iv, 1.5 mg/kg", "value": "0.696 to 7.4", "unit": "µg·h/mL"},
      {"measurement": "concentration at 0.25 h", "setting": "[8]", "value": 3.78, "unit": "µg/mL"},
      {"measurement": "concentration at 1 h", "setting": "[8]", "value": 1.76, "unit": "µg/mL"},
      {"measurement": "concentration at 2 h", "setting": "[8]", "value": 1.31, "unit": "µg/mL"},
      {"measurement": "concentration at 6 h", "setting": "[8]", "value": 0.263, "unit": "µg/mL"},
      {"measurement": "half-life", "setting": "female, Sprague-Dawley, iv, 1.5 mg/kg, T1/2 of 100 in brain", "value": "1.67 to 1.93", "unit": "h"},
      {"measurement": "half-life", "setting": "female, Sprague-Dawley, iv, 1.5 mg/kg, T1/2 of 100 in liver", "value": "0.78 to 2.01", "unit": "h"},
      {"measurement": "half-life", "setting": "female, Sprague-Dawley, iv, 1.5 mg/kg, T1/2 of 100 in plasma", "value": "0.31 to 2.2", "unit": "h"},
      {"measurement": "Cmax", "setting": "female, Sprague-Dawley, iv, 1.5 mg/kg, mean Cmax of 100 in brain", "value": "17.4 to 43.5", "unit": "ng/g"},
      {"measurement": "Cmax", "setting": "female, Sprague-Dawley, iv, 1.5 mg/kg, mean Cmax of 100 in liver", "value": "586 to 2550", "unit": "ng/g"},
      {"measurement": "AUC of 100 versus dose level (statement)", "value": "increased proportionally"},
      {"measurement": "100 detectable in brain tissue samples", "setting": "iv", "value": "detectable"},
      {"measurement": "100 detectable in liver tissue samples", "setting": "iv", "value": "detectable"},
      {"measurement": "100 in brain tissue", "setting": "iv", "value": "below limit of quantification"},
      {"measurement": "100 in liver tissue", "setting": "iv", "value": "below limit of quantification"},
      {"measurement": "AUCINF of 100", "setting": "iv, 0.5 mg/kg", "value": 902.2, "unit": "ng·h/g"},
      {"measurement": "AUClast of 100 in brain", "setting": "iv, 1.5 mg/kg", "value": "10.8˜125.5 ng·h/g"},
      {"measurement": "AUClast of 100 in liver", "setting": "iv, 1.5 mg/kg", "value": "758.6˜9081.0 ng·h/g"}
    ]}
  ]
}
